Drawing on PMC4396556, “1,2,3,4,6-Penta-O-galloylglucose within Galla Chinensis Inhibits Human LDH-A and Attenuates Cell Proliferation in MDA-MB-231 Breast Cancer Cells” (Evidence-based Complementary and Alternative Medicine : eCAM, 2015), this text covers IC50 for 2 molecules.

Test [1] has as its target T1, human LDH-A (hLDH-A) (Homo sapiens, UniProt P00338).
T1 construct: gene LDHA; recombinant full length human LDHA (amino acids 1–332) with N terminal His tag
In words: recombinant enzyme assay, NADH oxidation at […] nm. The class given is biochemical.

For test [2], the target named is T1, human LDH-A (hLDH-A). In words: recombinant enzyme assay, NADH oxidation at […] nm; velocity at varied NADH ±[…] PGG. It counts as biochemical.

By IC50 is commonly meant the concentration at which inhibition is half-maximal. Turning to `O=C(O)C(=O)O` [oxalic acid], the IC50 on human LDH-A (hLDH-A) [1] was above 6000 µM.

In the case of `O=C(OC[C@H]1O[C@@H](OC(=O)c2cc(O)c(O)c(O)c2)[C@H](OC(=O)c2cc(O)c(O)c(O)c2)[C@@H](OC(=O)c2cc(O)c(O)c(O)c2)[C@@H]1OC(=O)c1cc(O)c(O)c(O)c1)c1cc(O)c(O)c(O)c1` [PGG, penta-1,2,3,4,6-O-galloyl-β-D-glucose], the IC50 on human LDH-A (hLDH-A) [2] amounted to 0.0272 µM.
